Earlier results on two compounds are cited in patent US6451782B1, “Use of 4-androstene-3alpha,17 beta-diol to increase testosterone levels in humans” (priority 2002, dated 2002).

Read-outs that look alike come from different tables or passages of the source. Some results are limits rather than exact numbers.

The conditions of data set [1]: humans.
For data set [2] the following is noted: in-vitro, rat liver preparations.
The conditions of data set [3]: in-vitro, chicken liver preparations.
For data set [4] the following is noted: humans, intravenous, radio-labeled, urinary metabolites.

As for `C[C@]12CC[C@H]3[C@@H](CCC4=CC(O)CC[C@@]43C)[C@@H]1CC[C@@H]2O` (stereo partly drawn) [4-androstene-3,17beta-diol], the “time to peak concentration of active hormone (testosterone)” value in data set [1] (after administration of the precursor) was at most 90 min. Moreover, the “period over which testosterone concentrations subsequently decline” value in data set [1] (after the peak) is “three to four”. For the same compound, the identified metabolites entry was “androstenedione, epitestosterone and testosterone” in data set [2]; “androstenedione, epitestosterone and testosterone” in data set [3]. For the same compound, in data set [4], the “metabolic relationship to testosterone” value is on record as “direct precursor relationship to testosterone”.
Consider `C[C@]12CC[C@H]3[C@@H](CCC4=C[C@H](O)CC[C@@]43C)[C@@H]1CC[C@@H]2O` [4-androstene-3alpha, 17beta-diol], for which the identified metabolites result was “androstenedione, epitestosterone and testosterone” in data set [2]; “androstenedione, epitestosterone and testosterone” in data set [3]. The “metabolic relationship to testosterone” value in data set [4] is recorded as “direct precursor relationship to testosterone”. Moreover, the “pathway of metabolism to androstane metabolites” value in data set [4] is listed as “involved first its conversion to a 3-keto steroid”.
